Laboratory results published in patent US20240109900A1, “AZABICYCLIC SHP2 INHIBITORS” (IRBM S.P.A., priority 2021, published 2024).
Like-named read-outs stand apart in the source and are kept apart here.

Experiments:
[1] = target: SHP-2 enzyme (Met1-Leu525) (Homo sapiens (Human), UniProt Q06124); experiment: SHP2 inhibition enzymatic assay; type: biochemical; details: 0.5 nM SHP-2 activated by 500 nM IRS1 peptide, 75 μM DiFMUP substrate; read-out: SHP2wt-IC50
In short: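 SHP-2 (Met1-Leu525), 0.5 nM, activated with 500 nM IRS1 bis-phosphopeptide, preincubated 30 min with compounds in HEPES pH 7.2 buffer with 5 mM DTT. 75 μM DiFMUP added for 30 min at room temperature, stopped with bpV; fluorescence read. IC50 from four-parameter logistic fit of % inhibition.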

[2] = tested on: ERK phosphorylation in KYSE-520 cells; experiment: Phospho-ERK cellular assay; type: cell-based; details: KYSE-520 cells, 2 h at 37° C., phospho-ERK1/2 (Thr202/Tyr204) TR-FRET, read-out: PERK IC50
In short: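 TR-FRET read-out of ERK1/2 Thr202/Tyr204 phosphorylation was taken after overnight antibody incubation at room temperature. Before that, KYSE-520 cells were treated 2 h at 37 °C with compound dilutions and lysed 30 min. Percent inhibition relative to vehicle and cell-free wells was fitted four-parametrically to give IC50.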

Chain of SHP-2 enzyme (Met1-Leu525) (Q06124 1-525): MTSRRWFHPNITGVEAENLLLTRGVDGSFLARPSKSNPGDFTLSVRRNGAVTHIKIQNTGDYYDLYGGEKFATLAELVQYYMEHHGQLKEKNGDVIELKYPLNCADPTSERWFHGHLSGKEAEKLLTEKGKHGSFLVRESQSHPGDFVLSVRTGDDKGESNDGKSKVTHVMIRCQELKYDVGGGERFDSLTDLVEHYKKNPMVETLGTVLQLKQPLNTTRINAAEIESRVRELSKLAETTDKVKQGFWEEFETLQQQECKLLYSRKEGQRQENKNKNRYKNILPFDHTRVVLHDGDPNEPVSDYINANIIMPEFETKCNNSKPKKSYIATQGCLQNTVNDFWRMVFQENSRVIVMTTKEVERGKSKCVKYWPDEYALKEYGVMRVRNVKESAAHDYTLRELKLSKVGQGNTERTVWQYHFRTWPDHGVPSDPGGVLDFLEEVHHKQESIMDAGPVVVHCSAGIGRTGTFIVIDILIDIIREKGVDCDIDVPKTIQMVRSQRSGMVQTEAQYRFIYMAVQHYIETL

| Structure (SMILES) | IC50 [1] [nM] | IC50 ([2]; Homo sapiens, KYSE-520, 2 h) [nM] | IC50 [2] [nM] |
| --- | --- | --- | --- |
| NC[C@]1(c2ccccc2F)[C@@H]2CCN(c3cnc4c(-c5ccc6c(c5)S(=O)(=O)NC6=O)n[nH]c4n3)C[C@@H]21 [Example 249, 6-(6-((1S,6R,7R)-7-(aminomethyl)-7-(2-fluorophenyl)-3-azabicyclo[4.1.0]heptan-3-yl)-1H-pyrazolo[3,4-b]pyrazin-3-yl)benzo[d]isothiazol-3(2H)-one 1,1-dioxide] | < 500 | > 5000 |  |
| Cc1csc([C@@]2(CN)[C@@H]3CN(c4cnc5c(-c6ccc7c(cnn7C(F)F)c6Cl)n[nH]c5n4)C[C@@H]32)n1 [Example 506] | < 500 |  | < 1000 |
| Cc1cc(C(N)=O)ccc1-c1n[nH]c2nc(N3CC[C@@H]4[C@H](C3)[C@@]4(CN)c3ccccc3F)cnc12 [Example 250, 4-(6-((1S,6R,7R)-7-(aminomethyl)-7-(2-fluorophenyl)-3-azabicyclo[4.1.0]heptan-3-yl)-1H-pyrazolo[3,4-b]pyrazin-3-yl)-3-methylbenzamide] | < 500 | < 1000 |  |
| NC[C@]1(c2ccccc2F)[C@@H]2CCN(c3cnc4c(-c5cccc(-c6ncco6)c5Cl)n[nH]c4n3)C[C@@H]21 [Example 168, ((1S,6R,7R)-3-(3-(2-chloro-3-(oxazol-2-yl)phenyl)-1H-pyrazolo[3,4-b]pyrazin-6-yl)-7-(2-fluorophenyl)-3-azabicyclo[4.1.0]heptan-7-yl)methanamine] | < 500 | < 1000 |  |
| CC(=O)Oc1c(F)cc(-c2n[nH]c3nc(N4CC[C@@H]5[C@H](C4)[C@@]5(CN)c4ccccc4F)cnc23)cc1F [Example 359, 4-(6-((1S,6R,7R)-7-(aminomethyl)-7-(2-fluorophenyl)-3-azabicyclo[4.1.0]heptan-3-yl)-1H-pyrazolo[3,4-b]pyrazin-3-yl)-2,6-difluorophenyl acetate] | < 500 | < 1000 |  |
| Cc1cc(C2(CN)C3CCN(c4cnc5c(-c6cccc(Cl)c6Cl)n[nH]c5n4)CC32)on1 (stereo not shown) [Example 6, (3-(3-(2,3-dichlorophenyl)-1H-pyrazolo[3,4-b]pyrazin-6-yl)-7-(3-methylisoxazol-5-yl)-3-azabicyclo[4.1.0]heptan-7-yl)methanamine] | < 500 | < 1000 |  |
| CN1C(=O)COc2ccc(-c3n[nH]c4nc(N5CC[C@@H]6[C@H](C5)[C@@]6(CN)c5ccccc5F)cnc34)c(Cl)c21 [Example 228, 6-(6-((1S,6R,7R)-7-(aminomethyl)-7-(2-fluorophenyl)-3-azabicyclo[4.1.0]heptan-3-yl)-1H-pyrazolo[3,4-b]pyrazin-3-yl)-5-chloro-4-methyl-2H-benzo[b][1,4]oxazin-3(4H)-one] | < 500 | < 1000 |  |
| CC(O)c1ccc(-c2n[nH]c3nc(N4CC[C@@H]5[C@H](C4)[C@@]5(CN)c4ccccc4F)cnc23)c2cccnc12 (stereo partly drawn) [Example 142, 1-(5-(6-((1S,6R,7R)-7-(aminomethyl)-7-(2-fluorophenyl)-3-azabicyclo[4.1.0]heptan-3-yl)-1H-pyrazolo[3,4-b]pyrazin-3-yl)quinolin-8-yl)ethan-1-ol] | < 500 | < 1000 |  |
| NC[C@]1(c2ccccc2F)[C@@H]2CCN(c3cnc4c(-c5ccc(C(N)=O)c6ncccc56)n[nH]c4n3)C[C@@H]21 [Example 220, 5-(6-((1S,6R,7R)-7-(aminomethyl)-7-(2-fluorophenyl)-3-azabicyclo[4.1.0]heptan-3-yl)-1H-pyrazolo[3,4-b]pyrazin-3-yl)quinoline-8-carboxamide] | < 500 | < 1000 |  |
| Cc1cc(C2(CN)C3CCN(c4cnc5c(-c6cccc(Cl)c6Cl)n[nH]c5n4)CC32)no1 (stereo not shown) [Example 8, (3-(3-(2,3-dichlorophenyl)-1H-pyrazolo[3,4-b]pyrazin-6-yl)-7-(5-methylisoxazol-3-yl)-3-azabicyclo[4.1.0]heptan-7-yl)methanamine] | < 500 | < 1000 |  |
| NC[C@]1(c2ccccc2F)[C@@H]2CCN(c3cnc4c(-c5ccc6c(c5Cl)NCCO6)n[nH]c4n3)C[C@@H]21 [Example 311] | < 500 |  | < 1000 |
| NC[C@]1(c2ccccc2F)[C@@H]2CCN(c3cnc4nc(Oc5ccc(F)cc5)ccc4n3)C[C@@H]21 [Example 409, ((1S,6R,7R)-3-(6-(4-fluorophenoxy)pyrido[2,3-b]pyrazin-2-yl)-7-(2-fluorophenyl)-3-azabicyclo[4.1.0]heptan-7-yl)methanamine] | < 500 | < 1000 |  |
| NC[C@]1(c2ccccc2F)[C@@H]2CCN(c3cnc4c(-c5ccc6c(c5)ncn6C(F)F)n[nH]c4n3)C[C@@H]21 [Example 418] | < 500 |  | < 1000 |
| Cn1cc2c(Cl)c(-c3n[nH]c4nc(N5CC[C@@H]6[C@H](C5)[C@@]6(CN)c5ccon5)cnc34)ccc2n1 [Example 123, ((1S,6R,7S)-3-(3-(4-chloro-2-methyl-2H-indazol-5-yl)-1H-pyrazolo[3,4-b]pyrazin-6-yl)-7-(isoxazol-3-yl)-3-azabicyclo[4.1.0]heptan-7-yl)methanamine] | < 500 | < 1000 |  |
| Cc1csc([C@@]2(CN)[C@@H]3CCN(c4cnc5c(-c6cc7ccnn7cc6Cl)n[nH]c5n4)C[C@@H]32)n1 [Example 481, ((1S,6R,7S)-3-(3-(6-chloropyrazolo[1,5-a]pyridin-5-yl)-1H-pyrazolo[3,4-b]pyrazin-6-yl)-7-(4-methylthiazol-2-yl)-3-azabicyclo[4.1.0]heptan-7-yl)methanamine] | < 500 | < 1000 |  |
| Cc1csc([C@@]2(CN)[C@@H]3CN(c4cnc5c(-c6ccc(C(N)=O)cc6Cl)n[nH]c5n4)C[C@@H]32)n1 [Example 512] | < 500 |  | < 1000 |
| Cc1csc([C@@]2(CN)[C@@H]3CN(c4cnc5c(-c6ccc7nsnc7c6Cl)n[nH]c5n4)C[C@@H]32)n1 [Example 467] | < 500 |  | < 1000 |
| NC[C@]1(c2ncccc2F)[C@@H]2CCN(c3cnc4c(-c5ccc(OC(F)(F)F)c6ncccc56)n[nH]c4n3)C[C@@H]21 [Example 144, ((1S,6R,7S)-7-(3-fluoropyridin-2-yl)-3-(3-(8-(trifluoromethoxy)quinolin-5-yl)-1H-pyrazolo[3,4-b]pyrazin-6-yl)-3-azabicyclo[4.1.0]heptan-7-yl)methanamine] | < 500 | < 1000 |  |
| Cn1cc2c(Cl)c(-c3n[nH]c4nc(N5CC[C@@H]6[C@H](C5)[C@@]6(CN)c5c(F)cccc5F)cnc34)ccc2n1 [Example 117, ((1S,6R,7R)-3-(3-(4-chloro-2-methyl-2H-indazol-5-yl)-1H-pyrazolo[3,4-b]pyrazin-6-yl)-7-(2,6-difluorophenyl)-3-azabicyclo[4.1.0]heptan-7-yl)methanamine] | < 500 | < 1000 |  |
| Cc1c(-c2n[nH]c3nc(N4CC[C@@H]5[C@H](C4)[C@@]5(CN)c4ccccc4F)cnc23)ccc2[nH]c(=O)[nH]c12 [Example 259, 5-(6-((1S,6R,7R)-7-(aminomethyl)-7-(2-fluorophenyl)-3-azabicyclo[4.1.0]heptan-3-yl)-1H-pyrazolo[3,4-b]pyrazin-3-yl)-4-methyl-1,3-dihydro-2H-benzo[d]imidazol-2-one] | < 500 | < 1000 |  |
